How the values were obtained:
[1] = molecular target: T1, purified recombinant Yck2 (Candida albicans, UniProt A0A1D8PKB4); assay: HotSpot kinase assay; type: biochemical, C. albicans
T1 construct: Yck2 residues 37-345 were PCR amplified from C. albicans genomic DNA; His6 (N); TEV protease site (N); made in house; host or cells: E. coli BL21(DE3)-Gold
Experimental: IC50s were determined using the in vitro HotSpot kinase assay (purified enzymes, ^33P-ATP, an appropriate substrate and 1 μM ATP). For enzyme inhibition assays, compounds were tested in range of ten concentrations from 10 uM to 0.0005 uM using purified recombinant Yck2. Reaction conditions were 1 uM ATP, one hour incubation with inhibitor, and kinase activity detected using 33-ATP phosphorylation of an appropriately selected peptide substrate.
Yck2 residues 37-345 were PCR amplified from C. albicans genomic DNA and subcloned into the vector pMCSG53, which codes for a N-terminal His6 tag, TEV protease site, followed by the Yck2 protein. E. coli BL21(DE3)-Gold competent cells were transformed with this plasmid and the Yck2 protein was purified using methodology previously described (Stogios et al., ACS Chem. Biol. 13, 1322-1332 (2018)).

[2] = Mammalian cell toxicity (Cell Titer-Glo); type: cell-based; conditions: human; HepG2 cells, 48 h incubation, Cell Titer-Glo luminescence
Experimental: HepG2 cells were seeded overnight at 500 cells/well in 384-well plate, then incubated with compounds (10-point concentration titration) for 48 h. Cell Titer-Glo® reagent ([…]) was added to each well and after 10-minute incubation at room temperature the luminescent signal was measured using an Envision plate reader (Perkin Elmer).

T1 sequence (A0A1D8PKB4 entry or part of it): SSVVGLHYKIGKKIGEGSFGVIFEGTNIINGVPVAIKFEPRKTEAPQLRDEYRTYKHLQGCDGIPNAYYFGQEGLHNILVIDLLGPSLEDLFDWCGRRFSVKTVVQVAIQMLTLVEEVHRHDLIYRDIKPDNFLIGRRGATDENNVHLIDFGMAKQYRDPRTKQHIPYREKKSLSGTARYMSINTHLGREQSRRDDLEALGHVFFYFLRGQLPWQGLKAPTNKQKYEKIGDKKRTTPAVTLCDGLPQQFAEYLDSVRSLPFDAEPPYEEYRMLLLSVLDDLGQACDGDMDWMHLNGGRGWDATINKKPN

Row | SMILES | IC50 [1] [µM] | IC50 at 48 h [2] [µM]
1 | Nc1nccc(-c2c(-c3ccc(F)cc3)ncn2C2CCN(CCCNCC(O)(Cn3cncn3)c3ccc(F)cc3F)CC2)n1 (centres unmarked) [Compound I-80, 1-((3-(4-(5-(2-aminopyrimidin-4-yl)-4-(4-fluorophenyl)-1H-imidazol-1-yl)piperidin-1-yl)propyl)amino)-2-(2,4-difluorophenyl)-3-(1H-1,2,4-triazol-1-yl)propan-2-ol] | 0.00333 | > 20
2 | Fc1ccc(-c2nn3cc(CNC[C@H]4CO[C@](Cn5cncn5)(c5ccc(F)cc5F)C4)ccc3c2-c2ccncc2)cc1 (stereo in doubt) [Compound I-256, 1-(trans-5-((1H-1,2,4-triazol-1-yl)methyl)-5-(2,4-difluorophenyl)tetrahydrofuran-3-yl)-N-((2-(4-fluorophenyl)-3-(pyridin-4-yl)pyrazolo[1,5-a]pyridin-6-yl)methyl)methanamine] |  | 11.8
3 | CC(C)(C)OC(=O)N1CCc2c(n(CCCN3CCC(n4cnc(-c5ccc(F)cc5)c4-c4ccnc(N)n4)CC3)c3ccc(Cl)cc23)C1 [Compound I-229, tert-butyl 9-(3-(4-(5-(2-aminopyrimidin-4-yl)-4-(4-fluorophenyl)-1H-imidazol-1-yl)piperidin-1-yl)propyl)-6-chloro-1,3,4,9-tetrahydro-2H-pyrido[3,4-b]indole-2-carboxylate] | 0.0164 | 5.59
4 | Cn1cc(-c2ccnc3c2C(=O)N(CCC2CCN(CC(O)(Cn4ccnn4)c4ccc(F)cc4F)CC2)C3)c(-c2ccc(F)cc2)n1 (centres unmarked) [Compound I-250] |  | > 50
5 | OC(Cn1cncn1)(c1ccc(F)cc1F)C(F)(F)c1ccc(C#Cc2ccc(CNCc3ccc4c(-c5ccncc5)c(-c5ccc(F)cc5)nn4c3)cc2)cn1 (centres unmarked) [Compound I-267, 2-(2,4-difluorophenyl)-1,1-difluoro-1-(5-((4-((((2-(4-fluorophenyl)-3-(pyridin-4-yl)pyrazolo[1,5-a]pyridin-6-yl)methyl)amino)methyl)phenyl)ethynyl)pyridin-2-yl)-3-(1H-1,2,4-triazol-1-yl)propan-2-ol] |  | 8.03
6 | Cn1cc(-c2ccnc3c2C(=O)N(CC2CCN(CC(=O)OC(Cn4cncn4)(Cn4cncn4)c4ccc(F)cc4F)CC2)C3)c(-c2ccc(F)cc2)n1 [Compound I-249, 2-(2,4-difluorophenyl)-1,3-di(1H-1,2,4-triazol-1-yl)propan-2-yl 2-(4-((4-(3-(4-fluorophenyl)-1-methyl-1H-pyrazol-4-yl)-5-oxo-5,7-dihydro-6H-pyrrolo[3,4-b]pyridin-6-yl)methyl)piperidin-1-yl)acetate] |  | > 50
7 | OC(COc1cccc2c(-c3ccncc3)c(-c3ccc(F)cc3)nn12)(Cn1cncn1)c1ccc(F)cc1F (centres unmarked) [Compound I-139, 2-(2,4-difluorophenyl)-1-((2-(4-fluorophenyl)-3-(pyridin-4-yl)pyrazolo[1,5-a]pyridin-7-yl)oxy)-3-(1H-1,2,4-triazol-1-yl)propan-2-ol] |  | > 20
8 | OC(Cn1cnnn1)(c1ccc(F)cc1F)C(F)(F)c1ccc(-c2ccc(CNCc3ccc4c(-c5ccncc5)c(-c5ccc(F)cc5)nn4c3)cc2)cn1 (centres unmarked) [Compound I-269, 2-(2,4-difluorophenyl)-1,1-difluoro-1-(5-(4-((((2-(4-fluorophenyl)-3-(pyridin-4-yl)pyrazolo[1,5-a]pyridin-6-yl)methyl)amino)methyl)phenyl)pyridin-2-yl)-3-(1H-tetrazol-1-yl)propan-2-ol] |  | 3.67
9 | Cn1cc(-c2ccncc2COC(=O)NC2CCN(CC(O)(Cn3cncn3)c3ccc(F)cc3F)CC2)c(-c2ccc(F)cc2)n1 (centres unmarked) [Compound I-244, (4-(3-(4-fluorophenyl)-1-methyl-1H-pyrazol-4-yl)pyridin-3-yl)methyl (1-(2-(2,4-difluorophenyl)-2-hydroxy-3-(1H-1,2,4-triazol-1-yl)propyl)piperidin-4-yl)carbamate] |  | 18.4

Reference: patent US20260199483A1 (Bright Angel Therapeutics Inc., priority 2022, published 2026)
